Measurements published in ChEMBL document CHEMBL1201862, “PubChem BioAssay data set” (2004).
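Method: 48-hour compound exposure of cells in 96-well plates, five concentrations, linear interpolation of endpoints. GI50 is the concentration that inhibits growth by half.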 Activity calls are given as the source filed them. Cut-off read from the data, not from the text of the source: active = GI50 up to about 1.1 µM and inactive = higher.

Key:
Test in all cases: NCI anticancer screen, dose series, 48 h
[1] = test system: OVCAR-4
[2] = test system: MDA-MB-435
[3] = test system: PC-3
[4] = test system: SNB-75
[5] = test system: SN12C
[6] = test system: U-251
[7] = test system: DU-145
[8] = test system: SK-MEL-5
[9] = test system: OVCAR-8
[10] = test system: TK-10
[11] = test system: ACHN
[12] = test system: CAKI-1
[13] = test system: MDA-MB-231
[14] = test system: SK-MEL-28
[15] = test system: SNB-19
[16] = test system: KM12
[17] = test system: CCRF-CEM
[18] = test system: HOP-62
[19] = test system: MOLT-4
[20] = test system: OVCAR-3

Row | Compound | GI50 [1] | GI50 [2] | GI50 [3] | GI50 [4] | GI50 [5] | GI50 [6] | GI50 [7] | GI50 [8] | GI50 [9] | GI50 [10] | GI50 [11] | GI50 [12] | GI50 [13] | GI50 [14] | GI50 [15] | GI50 [16] | GI50 [17] | GI50 [18] | GI50 [19] | GI50 [20]
1 | C(=N/Nc1ccccn1)/c1cccnc1 | 98.9 µM (inactive) | > 100 µM (inactive) | > 100 µM (inactive) | 58.6 µM (inactive) | > 100 µM (inactive) | > 100 µM (inactive) | > 100 µM (inactive) | > 100 µM (inactive) | > 100 µM (inactive) | > 100 µM (inactive) | > 100 µM (inactive) | > 100 µM (inactive) | > 100 µM (inactive) | 87.7 µM (inactive) | > 100 µM (inactive) | 68.7 µM (inactive) | > 100 µM (inactive) | > 100 µM (inactive) | 76.2 µM (inactive) | > 100 µM (inactive)
2 | CCN(CC)c1ccc2cc(-c3nc4ccccc4n3C)c(=O)oc2c1 | > 100 µM (inactive) | 0.0369 µM (active) | 0.2 µM (active) | 0.0177 µM (active) | 0.713 µM (active) | 0.352 µM (active) | 0.306 µM (active) | 0.0948 µM (active) | 0.497 µM (active) | > 100 µM (inactive) | 2.79 µM (inactive) | 0.288 µM (active) | 0.889 µM (active) |  | 0.408 µM (active) | 0.571 µM (active) | 0.154 µM (active) | 0.411 µM (active) | 0.533 µM (active) | 0.24 µM (active)
3 | CCCCc1ccc(Nc2nc(Cl)c3c(ncn3COCCOC(C)=O)n2)cc1 | 24.8 µM (inactive) | 17.7 µM (inactive) | 20.9 µM (inactive) | 2.2 µM (inactive) | 19.3 µM (inactive) | 22.9 µM (inactive) | 16.6 µM (inactive) | 18.7 µM (inactive) | 18.3 µM (inactive) | 20.4 µM (inactive) | 18.5 µM (inactive) | 25.9 µM (inactive) | 18.5 µM (inactive) |  | 20.9 µM (inactive) | 18 µM (inactive) | 28.2 µM (inactive) | 16.7 µM (inactive) | 20.4 µM (inactive) | 21.2 µM (inactive)
4 | Cc1cn(C2CC(n3cc(Cn4cc(F)c(=O)[nH]c4=O)nn3)C(CO)O2)c(=O)[nH]c1=O (stereo not drawn) | > 100 µM (inactive) | > 100 µM (inactive) | > 100 µM (inactive) | > 100 µM (inactive) | > 100 µM (inactive) | > 100 µM (inactive) | > 100 µM (inactive) | > 100 µM (inactive) | > 100 µM (inactive) | > 100 µM (inactive) | > 100 µM (inactive) | > 100 µM (inactive) | > 100 µM (inactive) | > 100 µM (inactive) | > 100 µM (inactive) | > 100 µM (inactive) | > 100 µM (inactive) | > 100 µM (inactive) | > 100 µM (inactive) | > 100 µM (inactive)
5 | CCOC(=O)c1nc2ccccc2nc1Nc1ccc(OC)cc1 | 18.5 µM (inactive) | > 100 µM (inactive) | 31.4 µM (inactive) | 37.9 µM (inactive) | 14.8 µM (inactive) | 35.1 µM (inactive) | 73.1 µM (inactive) | 30 µM (inactive) | 73.3 µM (inactive) | 25.7 µM (inactive) | 32.4 µM (inactive) | 13.8 µM (inactive) | 20.6 µM (inactive) | 54.7 µM (inactive) | 16.5 µM (inactive) | > 100 µM (inactive) | > 100 µM (inactive) | 15 µM (inactive) | > 100 µM (inactive) | 19.7 µM (inactive)
6 | CCOC(=O)C(C(=S)SC)c1nn2c(=O)cc(C)nc2s1 (stereo not drawn) | 23.7 µM (inactive) | 18.2 µM (inactive) | 20.9 µM (inactive) | 20.7 µM (inactive) | 16.2 µM (inactive) | 16 µM (inactive) | 17.9 µM (inactive) | 18.7 µM (inactive) | 19.3 µM (inactive) | 35.1 µM (inactive) | 20.2 µM (inactive) | 19.9 µM (inactive) | 19.5 µM (inactive) | 18.8 µM (inactive) | 21.3 µM (inactive) | 26.2 µM (inactive) | 29.4 µM (inactive) | 22.4 µM (inactive) | 19.2 µM (inactive) | 20.2 µM (inactive)
7 | CCc1ccccc1N1CCN(C(=O)c2cc(OC)c(OC)c(OC)c2)CC1 | 1.15 µM (inactive) | < 0.01 µM (active) | < 0.0144 µM (active) | 0.0182 µM (active) | 0.184 µM (active) | 0.0316 µM (active) | 0.0207 µM (active) | 0.0154 µM (active) | 0.0914 µM (active) | 0.0248 µM (active) | < 0.0137 µM (active) | < 0.0205 µM (active) | 0.057 µM (active) | 0.251 µM (active) | 0.067 µM (active) | 0.0231 µM (active) | 0.0524 µM (active) | 0.0217 µM (active) | 0.148 µM (active) | 0.0143 µM (active)
